Test results as given in patent publication US12377112B2, “Methods of treating neurocognitive disorders, chronic pain and reducing inflammation” (priority 2019, dated 2025).

Test system: healthy subjects
Assay: Phase 1 study: Social Cognition Panel (PET, RMET, SSR, SVO, TEQ)
Format: in vivo, human
Description: In some embodiments, Social Cognition Panel scales are utilized to evaluate the safety and/or efficacy of psilocybin. The social cognition panel scales comprise the pictorial empathy test (PET), reading the mind in the eyes test (RMET), social value orientation (SVO) test, the Toronto Empathy Questionnaire (TEQ), and the scale of social responsibility (SSR).
In some embodiments, the Pictorial Empathy Test (PET) is utilized to evaluate the effect of psilocybin on affective empathy.
In some embodiments, Reading the Mind in the Eyes Test (RMET) is utilized to evaluate the safety and/or efficacy of psilocybin. The RMET has 36 items, in which subjects are presented with a photograph of the eyes region of the face and must choose 1 of 4 adjectives or phrases to describe the mental state of the person pictured. A definition handout is provided at the beginning of the task and a practice item precedes the first trial.
In some embodiments, the Social Value Orientation (SVO) test is utilized to evaluate the safety and/or efficacy of psilocybin. The SVO Slider Measure has 6 primary items with 9 secondary (and optional) items. All of the items have the same general form. Each item is a resource allocation choice over a well-defined continuum of joint payoffs.
In some embodiments, the Toronto Empathy Questionnaire (TEQ) is utilized to evaluate the safety and/or efficacy of psilocybin. The TEQ represents empathy as a primarily emotional process. […] The TEQ is a brief, reliable and valid instrument for the assessment of empathy. In some embodiments, after treating according to the methods of the disclosure, a subject's TEQ score increases by about 5%, about 10%, about 15%, about 20%, about 25%, about 30%, about 35%, about 40%, about 45%, about 50%, about 55%, about 60%, about 65%, about 70%, about 75%, about 80%, about 85%, about 90%, about 95%, or about 100%, about 110%, about 120%, about 130%, about 140%, about 150%, about 160%, about 170%, about 180%, about 190%, about 200%, about 210%, about 220%, about 230%, about 240%, about 250%, about 260%, about 270%, about 280%, about 290%, or about 300%, or more, compared to prior to treatment.
In some embodiments, the Scale of Social Responsibility (SSR) is utilized to evaluate the safety and/or efficacy of psilocybin. The SSR measures perceptions regarding the importance of ethics and social responsibility.
The Pictorial Empathy Test (PET), Reading the Mind in the Eyes Test (RMET), Scale of Social Responsibility (SSR), Social Value Orientation (SVO), and Toronto Empathy Questionnaire (TEQ) were performed. Table 28 summarizes the results of the mixed model for repeated measures (MMRM) analysis for each of the aforementioned social cognition panel scales measured on Day 7 and Day 84 after study drug administration.

CN(C)CCc1c[nH]c2cccc(OP(=O)(O)O)c12 [Psilocybin, psilocybin]
PET change from baseline, LS mean difference Psilocybin 10 mg-Placebo (Day 7): −0.1 | PET change from baseline, LS mean difference Psilocybin 25mg-10mg (Day 7): 0.3 | PET change from baseline, LS mean difference Psilocybin 25 mg-Placebo (Day 7): 0.2 | RMET change from baseline, LS mean difference Psilocybin 10 mg-Placebo (Day 7): 0.1 | RMET change from baseline, LS mean difference Psilocybin 25mg-10mg (Day 7): 0.0 | RMET change from baseline, LS mean difference Psilocybin 25 mg-Placebo (Day 7): 0.2 | SSR compliance social rules change from baseline, LS mean difference Psilocybin 10 mg-Placebo (Day 7): 0.0 | SSR compliance social rules change from baseline, LS mean difference Psilocybin 25mg-10mg (Day 7): 0.1 | SSR compliance social rules change from baseline, LS mean difference Psilocybin 25 mg-Placebo (Day 7): 0.1 | SSR fulfilling expectations change from baseline, LS mean difference Psilocybin 10 mg-Placebo (Day 7): 0.1 | SSR fulfilling expectations change from baseline, LS mean difference Psilocybin 25mg-10mg (Day 7): 0.1 | SSR fulfilling expectations change from baseline, LS mean difference Psilocybin 25 mg-Placebo (Day 7): 0.2 | SSR global change from baseline, LS mean difference Psilocybin 10 mg-Placebo (Day 7): 1.2 | SSR global change from baseline, LS mean difference Psilocybin 25mg-10mg (Day 7): 1.6 | SSR global change from baseline, LS mean difference Psilocybin 25 mg-Placebo (Day 7): 2.8 | SVO angle change from baseline, LS mean difference Psilocybin 10 mg-Placebo (Day 7): 3.4 | SVO angle change from baseline, LS mean difference Psilocybin 25mg-10mg (Day 7): −1.3 | SVO angle change from baseline, LS mean difference Psilocybin 25 mg-Placebo (Day 7): 2.1 | SVO type change from baseline, LS mean difference Psilocybin 10 mg-Placebo (Day 7): 0.1 | SVO type change from baseline, LS mean difference Psilocybin 25mg-10mg (Day 7): −0.0 | SVO type change from baseline, LS mean difference Psilocybin 25 mg-Placebo (Day 7): 0.1 | TEQ change from baseline, LS mean difference Psilocybin 10 mg-Placebo (Day 7): 0.1 | TEQ change from baseline, LS mean difference Psilocybin 25mg-10mg (Day 7): 0.1 | TEQ change from baseline, LS mean difference Psilocybin 25 mg-Placebo (Day 7): 0.2 | PET change from baseline, LS mean difference Psilocybin 10 mg-Placebo (Day 84): −0.1 | PET change from baseline, LS mean difference Psilocybin 25mg-10mg (Day 84): 0.3 | PET change from baseline, LS mean difference Psilocybin 25 mg-Placebo (Day 84): 0.1 | RMET change from baseline, LS mean difference Psilocybin 10 mg-Placebo (Day 84): 0.2 | RMET change from baseline, LS mean difference Psilocybin 25mg-10mg (Day 84): 0.3 | RMET change from baseline, LS mean difference Psilocybin 25 mg-Placebo (Day 84): 0.5 | SSR compliance social rules change from baseline, LS mean difference Psilocybin 10 mg-Placebo (Day 84): −0.0 | SSR compliance social rules change from baseline, LS mean difference Psilocybin 25mg-10mg (Day 84): 0.1 | SSR compliance social rules change from baseline, LS mean difference Psilocybin 25 mg-Placebo (Day 84): 0.1 | SSR fulfilling expectations change from baseline, LS mean difference Psilocybin 10 mg-Placebo (Day 84): −0.1 | SSR fulfilling expectations change from baseline, LS mean difference Psilocybin 25mg-10mg (Day 84): 0.2 | SSR fulfilling expectations change from baseline, LS mean difference Psilocybin 25 mg-Placebo (Day 84): 0.0 | SSR global change from baseline, LS mean difference Psilocybin 10 mg-Placebo (Day 84): 0.3 | SSR global change from baseline, LS mean difference Psilocybin 25mg-10mg (Day 84): 1.8 | SSR global change from baseline, LS mean difference Psilocybin 25 mg-Placebo (Day 84): 2.2 | SVO angle change from baseline, LS mean difference Psilocybin 10 mg-Placebo (Day 84): 3.4 | SVO angle change from baseline, LS mean difference Psilocybin 25mg-10mg (Day 84): −1.0 | SVO angle change from baseline, LS mean difference Psilocybin 25 mg-Placebo (Day 84): 2.4 | SVO type change from baseline, LS mean difference Psilocybin 10 mg-Placebo (Day 84): 0.1 | SVO type change from baseline, LS mean difference Psilocybin 25mg-10mg (Day 84): −0.0 | SVO type change from baseline, LS mean difference Psilocybin 25 mg-Placebo (Day 84): 0.1 | TEQ change from baseline, LS mean difference Psilocybin 10 mg-Placebo (Day 84): 0.1 | TEQ change from baseline, LS mean difference Psilocybin 25mg-10mg (Day 84): 0.0 | TEQ change from baseline, LS mean difference Psilocybin 25 mg-Placebo (Day 84): 0.1 | SSR fulfilling expectations change from baseline, LS mean (Psilocybin 10 mg, Day 7): −0.1 | SSR fulfilling expectations change from baseline, LS mean (Psilocybin 10 mg, Day 84): −0.2 | TEQ change from baseline, LS mean (Psilocybin 10 mg, Day 84): −0.1 | SSR fulfilling expectations change from baseline, LS mean (Psilocybin 25 mg, Day 7): −0.0 | SSR fulfilling expectations change from baseline, LS mean (Psilocybin 25 mg, Day 84): −0.0 | TEQ change from baseline, LS mean (Psilocybin 25 mg, Day 84): −0.0
